# In publication PMC3658134 (Biochemistry, 2011):
# Read-outs that look alike come from different tables or passages of the source.
# Experiments:
# Assay type in all cases: biochemical
# wild-type TGR (SmTGR) = target: T1, wild-type TGR (SmTGR) (Schistosoma mansoni, UniProt Q962Y6); assay: Substrate specificity, NADPH consumption, wild-type TGR
# T1 sequence (Q962Y6 1-598): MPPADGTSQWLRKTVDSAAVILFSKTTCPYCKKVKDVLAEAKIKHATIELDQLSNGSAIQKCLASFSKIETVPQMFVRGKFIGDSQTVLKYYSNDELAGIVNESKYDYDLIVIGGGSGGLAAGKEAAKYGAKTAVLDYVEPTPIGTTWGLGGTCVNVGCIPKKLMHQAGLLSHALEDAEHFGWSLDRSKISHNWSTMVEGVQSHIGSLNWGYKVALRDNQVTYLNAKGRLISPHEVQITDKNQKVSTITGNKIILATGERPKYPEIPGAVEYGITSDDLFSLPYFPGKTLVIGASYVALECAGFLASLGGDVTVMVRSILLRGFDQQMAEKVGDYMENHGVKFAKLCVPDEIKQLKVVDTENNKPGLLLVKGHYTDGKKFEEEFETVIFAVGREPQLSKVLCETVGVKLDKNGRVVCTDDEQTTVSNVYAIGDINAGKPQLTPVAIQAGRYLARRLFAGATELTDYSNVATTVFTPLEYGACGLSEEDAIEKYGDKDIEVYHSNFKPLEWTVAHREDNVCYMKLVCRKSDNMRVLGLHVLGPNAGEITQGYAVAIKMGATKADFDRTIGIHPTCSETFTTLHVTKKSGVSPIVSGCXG
# Sec597Cys SmTGR [1] = target: T2, Sec597Cys SmTGR (Schistosoma mansoni, UniProt Q962Y6); assay: Substrate specificity, NADPH consumption, Sec597Cys; conditions: 100 μM NADPH
# WT SmTGR [2] = target: T3, WT SmTGR (Schistosoma mansoni, UniProt Q962Y6); assay: Inhibition of DTNB activity of WT SmTGR
# Sec597Cys SmTGR [3] = target: T2, Sec597Cys SmTGR; assay: Inhibition of DTNB activity of Sec597Cys
# WT SmTGR [4] = target: T3, WT SmTGR; assay: Inhibition of GR activity of WT SmTGR
# Sec597Cys SmTGR [5] = target: T2, Sec597Cys SmTGR; assay: Inhibition of GR activity of Sec597Cys
# WT SmTGR [6] = target: T3, WT SmTGR; assay: Inhibition of TrxR activity of WT SmTGR
# Sec597Cys SmTGR [7] = target: T2, Sec597Cys SmTGR; assay: Inhibition of TrxR activity of Sec597Cys
# [8] = WT enzyme 20 or 100 nM, 100 μM NADPH, ND = undetectable activity
# [9] = Sec597Cys 100 or 150 nM, ND = undetectable activity
smiles,measurement,setting,value
"O=C(O)CCCC[C@@H]1CCSS1 (racemic) [Lipoic acid, lipoic acid]",Km,wild-type TGR (SmTGR); [8],2.9 ± 0.7 mM
same,Km,Sec597Cys SmTGR [1]; [9],9.3 ± 2.9 mM
"O=C1NC(=O)C(=O)C(=O)N1 [Alloxan, alloxan]",Km,Sec597Cys SmTGR [1]; [9],0.88 ± 0.07 mM
"N#Cc1c(-c2ccccc2)no[n+]1[O-] [Fx, 4-phenyl-1,2,5-oxadiazole-3-carbonitrile-2-oxide]",IC50,WT SmTGR [2],3 µM
same,IC50,Sec597Cys SmTGR [3],6 µM
same,IC50,WT SmTGR [4],3.2 µM
same,IC50,Sec597Cys SmTGR [5],2.5 µM
same,IC50,WT SmTGR [6],5.4 µM
same,IC50,Sec597Cys SmTGR [7],2.1 µM
"OO [H2O2, hydrogen peroxide]",Km,wild-type TGR (SmTGR),17.3 ± 7.6 mM
same,Vmax,wild-type TGR (SmTGR); pH 7.4,4.6 ± 0.7 s⁻¹
same,Km,Sec597Cys SmTGR [1]; [9],52.4 ± 9.8 mM
"O=[Se](O)O [NaSeO3, sodium selenite]",Km,"wild-type TGR (SmTGR); WT enzyme 100 nM, 100 μM NADPH",0.0087 ± 0.0025 mM
same,Km,Sec597Cys SmTGR [1]; Sec597Cys 100 nM,0.0173 ± 0.0044 mM
"CC(C)(C)OO [t-Butyl-OOH, tert-butyl hydroperoxide]",Km,wild-type TGR (SmTGR); [8],75 ± 10 mM
same,Km,Sec597Cys SmTGR [1]; [9],53 ± 5 mM
